Organism: Rattus norvegicus
Test: Open TG-GATES - Regimen: Single
Assay type: toxicity, organism-based, Sprague-Dawley
Parameters: regimen Single, gender Male, age 6 weeks
Settings: in vivo, po, 100 mg/kg, route gavage, dose level Low; for APTT / Bas / Eos / Fbg / Hb / Ht / Lym / MCH / MCHC / MCV / Mono / Neu / PT / Plat / RBC / Ret / WBC: tissue Blood; for KIDNEY_L / KIDNEY_R / KIDNEY_TOTAL: tissue Kidney; for LIVER: tissue Liver; for A/G / ALP / ALT / AST / BUN / CRE / Ca / Cl / DBIL / GLC / IP / K / LDH / Na / PL / RALB / TBIL / TC / TG / TP / gamma-GTP: tissue Plasma

`O=C(O)c1cc(/N=N/c2ccc(S(=O)(=O)Nc3ccccn3)cc2)ccc1O` [SULFASALAZINE] showed a TERMINAL_BW (3 h) of 211 g, an APTT (3 h) of 19.2 s and a Bas (3 h) of 0%. It also gave an Eos (3 h) of 1%, a Fbg (3 h) of 216.6 mg/dL and a Hb (3 h) of 13 g/dL. For the same compound, the Ht (3 h) was 38.4%, the Lym (3 h) was 77.2% and the MCH (3 h) was 21.5 pg. The MCHC (3 h) was 33.9%, the MCV (3 h) was 63.4 fL and the Mono (3 h) was 2.4%. It also gave a Neu (3 h) of 18.6%, a PT (3 h) of 12.5 s and a Plat (3 h) of 129.8 x10_4/uL. The RBC (3 h) was 605.4 x10_4/ul, the Ret (3 h) was 7.1% and the WBC (3 h) was 92.9 x10_2/uL. It also gave a KIDNEY_L (3 h) of 1 g, a KIDNEY_R (3 h) of 0.9 g and a KIDNEY_TOTAL (3 h) of 1.9 g. The LIVER (3 h) was 10.2 g, the A/G (3 h) was 1.6 and the ALP (3 h) was 984.8 IU/L. For the same compound, the ALT (3 h) was 37.4 IU/L, the AST (3 h) was 69.4 IU/L and the BUN (3 h) was 11 mg/dL. It also gave a CRE (3 h) of 0.4 mg/dL, a Ca (3 h) of 10.6 mg/dL and a Cl (3 h) of 102.2 meq/L. The DBIL (3 h) was 0.068 mg/dL, the GLC (3 h) was 201.8 mg/dL and the IP (3 h) was 9.5 mg/dL. For the same compound, the K (3 h) was 3.7 meq/L, the LDH (3 h) was 166.6 IU/L and the Na (3 h) was 140.8 meq/L. The PL (3 h) was 148 mg/dL, the RALB (3 h) was 3.3 g/dL and the TBIL (3 h) was 0.1 mg/dL. For the same compound, the TC (3 h) was 80 mg/dL, the TG (3 h) was 59.4 mg/dL and the TP (3 h) was 5.4 g/dL. The gamma-GTP (3 h) was 1.2 IU/L, the TERMINAL_BW (6 h) was 210.8 g and the APTT (6 h) was 19 s. For the same compound, the Bas (6 h) was 0%, the Eos (6 h) was 1% and the Fbg (6 h) was 218.6 mg/dL. The Hb (6 h) was 13.2 g/dL, the Ht (6 h) was 38.5% and the Lym (6 h) was 73.6%. It also gave an MCH (6 h) of 21.9 pg, an MCHC (6 h) of 34.3% and an MCV (6 h) of 63.9 fL. For the same compound, the Mono (6 h) was 3%, the Neu (6 h) was 21.2% and the PT (6 h) was 12.7 s. It also gave a Plat (6 h) of 111 x10_4/uL, an RBC (6 h) of 603.2 x10_4/ul and a Ret (6 h) of 7.2%. The WBC (6 h) was 89.7 x10_2/uL, the KIDNEY_L (6 h) was 1 g and the KIDNEY_R (6 h) was 1 g. It also gave a KIDNEY_TOTAL (6 h) of 2 g, an LIVER (6 h) of 9.7 g and an A/G (6 h) of 1.6. The ALP (6 h) was 986.4 IU/L, the ALT (6 h) was 35.8 IU/L and the AST (6 h) was 68.4 IU/L. It also gave a BUN (6 h) of 10.2 mg/dL, a CRE (6 h) of 0.4 mg/dL and a Ca (6 h) of 10.6 mg/dL. For the same compound, the Cl (6 h) was 101.8 meq/L, the DBIL (6 h) was 0.066 mg/dL and the GLC (6 h) was 193.6 mg/dL. The IP (6 h) was 9.7 mg/dL, the K (6 h) was 3.9 meq/L and the LDH (6 h) was 198.6 IU/L. The Na (6 h) was 140.2 meq/L, the PL (6 h) was 148 mg/dL and the RALB (6 h) was 3.3 g/dL. The TBIL (6 h) was 0.1 mg/dL, the TC (6 h) was 76.6 mg/dL and the TG (6 h) was 61.2 mg/dL. The TP (6 h) was 5.4 g/dL, the gamma-GTP (6 h) was 1.6 IU/L and the TERMINAL_BW (9 h) was 204.7 g. It also gave an APTT (9 h) of 19.3 s, a Bas (9 h) of 0% and an Eos (9 h) of 1%. The Fbg (9 h) was 225.8 mg/dL, the Hb (9 h) was 13.2 g/dL and the Ht (9 h) was 38.8%. It also gave a Lym (9 h) of 82.4%, an MCH (9 h) of 21.4 pg and an MCHC (9 h) of 34%. It also gave an MCV (9 h) of 63 fL, a Mono (9 h) of 3.4% and a Neu (9 h) of 12.4%. For the same compound, the PT (9 h) was 12.8 s, the Plat (9 h) was 113 x10_4/uL and the RBC (9 h) was 616.6 x10_4/ul. For the same compound, the Ret (9 h) was 6.7%, the WBC (9 h) was 76.6 x10_2/uL and the KIDNEY_L (9 h) was 1 g. For the same compound, the KIDNEY_R (9 h) was 1 g, the KIDNEY_TOTAL (9 h) was 2 g and the LIVER (9 h) was 8.7 g. It also gave an A/G (9 h) of 1.6, an ALP (9 h) of 932.8 IU/L and an ALT (9 h) of 35.4 IU/L. For the same compound, the AST (9 h) was 63.8 IU/L, the BUN (9 h) was 9.4 mg/dL and the CRE (9 h) was 0.3 mg/dL. It also gave a Ca (9 h) of 10.6 mg/dL, a Cl (9 h) of 102.2 meq/L and a DBIL (9 h) of 0.068 mg/dL. It also gave a GLC (9 h) of 194.2 mg/dL, an IP (9 h) of 10.2 mg/dL and a K (9 h) of 3.8 meq/L. For the same compound, the LDH (9 h) was 198.8 IU/L, the Na (9 h) was 139.8 meq/L and the PL (9 h) was 145.4 mg/dL. The RALB (9 h) was 3.3 g/dL, the TBIL (9 h) was 0.1 mg/dL and the TC (9 h) was 83 mg/dL. For the same compound, the TG (9 h) was 41.6 mg/dL, the TP (9 h) was 5.5 g/dL and the gamma-GTP (9 h) was 1.2 IU/L. For the same compound, the TERMINAL_BW (24 h) was 221.5 g, the APTT (24 h) was 17.9 s and the Bas (24 h) was 0%. The Eos (24 h) was 1%, the Fbg (24 h) was 234.6 mg/dL and the Hb (24 h) was 13.2 g/dL. It also gave a Ht (24 h) of 38.5%, a Lym (24 h) of 81% and an MCH (24 h) of 21.2 pg. It also gave an MCHC (24 h) of 34.4%, an MCV (24 h) of 61.8 fL and a Mono (24 h) of 2.8%. It also gave a Neu (24 h) of 13.8%, a PT (24 h) of 12.5 s and a Plat (24 h) of 123 x10_4/uL. The RBC (24 h) was 624 x10_4/ul, the Ret (24 h) was 6.3% and the WBC (24 h) was 86.3 x10_2/uL. It also gave a KIDNEY_L (24 h) of 1 g, a KIDNEY_R (24 h) of 1 g and a KIDNEY_TOTAL (24 h) of 2 g. It also gave an LIVER (24 h) of 10.5 g, an A/G (24 h) of 1.6 and an ALP (24 h) of 1020.4 IU/L. It also gave an ALT (24 h) of 40.4 IU/L, an AST (24 h) of 64.6 IU/L and a BUN (24 h) of 15.2 mg/dL. It also gave a CRE (24 h) of 0.4 mg/dL, a Ca (24 h) of 10.8 mg/dL and a Cl (24 h) of 101.4 meq/L. The DBIL (24 h) was 0.092 mg/dL, the GLC (24 h) was 184 mg/dL and the IP (24 h) was 7.7 mg/dL. The K (24 h) was 4.1 meq/L, the LDH (24 h) was 213 IU/L and the Na (24 h) was 139.8 meq/L. The PL (24 h) was 158.2 mg/dL, the RALB (24 h) was 3.5 g/dL and the TBIL (24 h) was 0.1 mg/dL. It also gave a TC (24 h) of 79.6 mg/dL, a TG (24 h) of 88.8 mg/dL and a TP (24 h) of 5.7 g/dL. It also gave a gamma-GTP (24 h) of 1.6 IU/L.

Source: ChEMBL document CHEMBL3885861, “Open TG-GATES”
